Source: patent publication US20170190671A1, “BIS(ARYL)CATECHOL DERIVATIVES AS HERBICIDES” (E I DU PONT DE NEMOURS AND COMPANY, priority 2014, published 2017)

Legend:
Assay type in all cases: in vivo
[1] = test system: rice (Oryza sativa); test: Test B flooded paddy; details: Oryza sativa, 336 h; 250 g ai/ha, Flood, 13 to 15 days, scale 0 (no effect) to 100 (complete control); read-out: Plant response rating, Rice
In short: (§1)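 Under a constant 3 cm flood, test compounds went directly into the paddy water. Following 13 to 15 days of greenhouse growth, treated species and controls were compared by eye.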

[2] = test system: ducksalad (Heteranthera limosa); test: Test B flooded paddy; details: Heteranthera limosa, 336 h; 250 g ai/ha, Flood, 13 to 15 days, scale 0 (no effect) to 100 (complete control); read-out: Plant response rating, Ducksalad
In short: as §1

[3] = test system: barnyardgrass (Echinochloa crus-galli); test: Test B flooded paddy; details: Echinochloa crus-galli, 336 h; 250 g ai/ha, Flood, 13 to 15 days, scale 0 (no effect) to 100 (complete control); read-out: Plant response rating, Barnyardgrass
In short: as §1

[4] = test system: sedge, umbrella (small-flower umbrella sedge, Cyperus difformis); test: Test B flooded paddy; details: Cyperus difformis, 336 h; 250 g ai/ha, Flood, 13 to 15 days, scale 0 (no effect) to 100 (complete control); read-out: Plant response rating, Sedge, Umbrella
In short: as §1

[5] = test system: pigweed (Amaranthus retroflexus); test: Test A preemergence; details: Amaranthus retroflexus, pre-emergence, 240 h, 0 to 100 scale (0 no effect, 100 complete control), read-out: Pigweed plant response rating
In short: (§2)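 Visual 0–100 rating (100 = complete control) taken about 10 d post-treatment relative to untreated checks. Preemergence: directed soil spray on sown loam/sand pots. Postemergence: seedlings 2–10 cm, 1–2 leaf. Non-phytotoxic solvent formulation with surfactant.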

[6] = test system: kochia (Kochia scoparia); test: Test A preemergence; details: Bassia scoparia, pre-emergence, 240 h, 0 to 100 scale (0 no effect, 100 complete control), read-out: Kochia plant response rating
In short: as §2

[7] = test system: giant foxtail (Setaria faberii); test: Test A preemergence; details: Setaria faberi, pre-emergence, 240 h, 0 to 100 scale (0 no effect, 100 complete control), read-out: Foxtail, Giant plant response rating
In short: as §2

[8] = test system: Italian ryegrass (Lolium multiflorum); test: Test A preemergence; details: Lolium multiflorum, pre-emergence, 240 h, 0 to 100 scale (0 no effect, 100 complete control), read-out: Ryegrass, Italian plant response rating
In short: as §2

[9] = test system: barnyardgrass (Echinochloa crus-galli); test: Test A preemergence; details: Echinochloa crus-galli, pre-emergence, 240 h
In short: as §2

[10] = test system: ragweed (common ragweed, Ambrosia elatior); test: Test A preemergence; details: Ambrosia artemisiifolia, pre-emergence, 240 h, 0 to 100 scale (0 no effect, 100 complete control), read-out: Ragweed plant response rating
In short: as §2

[11] = test system: pigweed (Amaranthus retroflexus); test: Test A postemergence; details: Amaranthus retroflexus, post-emergence, 240 h, 0 to 100 scale, read-out: Plant response rating, Pigweed
In short: as §2

[12] = test system: corn (Zea mays); test: Test A postemergence; details: Zea mays, post-emergence, 240 h, 0 to 100 scale
In short: as §2

[13] = test system: kochia (Kochia scoparia); test: Test A postemergence; details: Bassia scoparia, post-emergence, 240 h, 0 to 100 scale, read-out: Plant response rating, Kochia
In short: as §2

[14] = test system: galium (catchweed bedstraw, Galium aparine); test: Test A postemergence; details: Galium, post-emergence, 240 h, 0 to 100 scale, read-out: Plant response rating, Galium
In short: as §2

[15] = test system: giant foxtail (Setaria faberii); test: Test A postemergence; details: Setaria faberi, post-emergence, 240 h, 0 to 100 scale, read-out: Plant response rating, Foxtail, Giant
In short: as §2

[16] = test system: wheat (Triticum aestivum); test: Test A postemergence; details: Triticum aestivum, post-emergence, 240 h, 0 to 100 scale, read-out: Plant response rating, Wheat
In short: as §2

[17] = test system: Italian ryegrass (Lolium multiflorum); test: Test A postemergence; details: Lolium multiflorum, post-emergence, 240 h, 0 to 100 scale, read-out: Plant response rating, Ryegrass, Italian
In short: as §2

[18] = test system: barnyardgrass (Echinochloa crus-galli); test: Test A postemergence; details: Echinochloa crus-galli, post-emergence, 240 h, 0 to 100 scale, read-out: Plant response rating, Barnyardgrass
In short: as §2

[19] = test system: ragweed (common ragweed, Ambrosia elatior); test: Test A postemergence; details: Ambrosia artemisiifolia, post-emergence, 240 h, 0 to 100 scale, read-out: Plant response rating, Ragweed
In short: as §2

[20] = test system: blackgrass (Alopecurus myosuroides); test: Test A postemergence; details: Alopecurus myosuroides, post-emergence, 240 h, 0 to 100 scale, read-out: Plant response rating, Blackgrass
In short: as §2

Which plant injury at 250 g/ha [1] does the source give for N#Cc1cccc(Oc2ncc(Cl)cn2)c1Oc1ccc(Br)cn1 [Compound 15] here?
The plant injury at 250 g/ha was 0%.

And the pest or weed control at 250 g/ha [2]?
Its pest or weed control at 250 g/ha is 75%.

What about the pest or weed control at 250 g/ha [3] of the same molecule?
The pest or weed control at 250 g/ha was 0%.

And the pest or weed control at 250 g/ha [4]?
The pest or weed control at 250 g/ha was 90%.

And the pest or weed control at 31 g/ha ([5]; 31 g ai/ha)?
Its pest or weed control at 31 g/ha is 80%.

What about the pest or weed control at 125 g/ha ([5]; 125 g ai/ha) of the same molecule?
Its pest or weed control at 125 g/ha is 100%.

What about the pest or weed control at 31 g/ha ([6]; 31 g ai/ha) of the same molecule?
Its pest or weed control at 31 g/ha is 90%.

What about the pest or weed control at 125 g/ha ([6]; 125 g ai/ha) of the same molecule?
The pest or weed control at 125 g/ha was 100%.

What about the pest or weed control at 31 g/ha ([7]; 31 g ai/ha) of the same molecule?
The pest or weed control at 31 g/ha was 60%.

What about the pest or weed control at 125 g/ha ([7]; 125 g ai/ha) of the same molecule?
Its pest or weed control at 125 g/ha is 100%.

What about the pest or weed control at 31 g/ha ([8]; 31 g ai/ha) of the same molecule?
Its pest or weed control at 31 g/ha is 0%.

What about the pest or weed control at 125 g/ha ([8]; 125 g ai/ha) of the same molecule?
The pest or weed control at 125 g/ha was 10%.

What about the pest or weed control at 31 g/ha ([9]; 31 g ai/ha, 0 to 100 scale (0 no effect, 100 complete control), read-out: Barnyardgrass plant response rating) of the same molecule?
The pest or weed control at 31 g/ha was 0%.

What about the pest or weed control at 125 g/ha ([9]; 125 g ai/ha, 0 to 100 scale, read-out: Plant response rating, Barnyardgrass) of the same molecule?
Its pest or weed control at 125 g/ha is 60%.

What about the pest or weed control at 31 g/ha ([10]; 31 g ai/ha) of the same molecule?
The pest or weed control at 31 g/ha was 0%.

What about the pest or weed control at 125 g/ha ([10]; 125 g ai/ha) of the same molecule?
Its pest or weed control at 125 g/ha is 0%.

What about the pest or weed control at 31 g/ha ([11]; 31 g ai/ha) of the same molecule?
The pest or weed control at 31 g/ha was 100%.

And the pest or weed control at 125 g/ha ([11]; 125 g ai/ha)?
The pest or weed control at 125 g/ha was 100%.

And the Corn plant response rating (crop injury, 0 = no effect, 100 = complete kill) at 31 g/ha ([12]; 31 g ai/ha)?
The Corn plant response rating (crop injury, 0 = no effect, 100 = complete kill) at 31 g/ha was 10%.

What about the Corn plant response rating (crop injury, 0 = no effect, 100 = complete kill) at 125 g/ha ([12]; 125 g ai/ha) of the same molecule?
The Corn plant response rating (crop injury, 0 = no effect, 100 = complete kill) at 125 g/ha was 10%.

What about the pest or weed control at 31 g/ha ([13]; 31 g ai/ha) of the same molecule?
Its pest or weed control at 31 g/ha is 40%.

What about the pest or weed control at 125 g/ha ([13]; 125 g ai/ha) of the same molecule?
The pest or weed control at 125 g/ha was 90%.

What about the pest or weed control at 31 g/ha ([14]; 31 g ai/ha) of the same molecule?
Its pest or weed control at 31 g/ha is 50%.

What about the pest or weed control at 125 g/ha ([14]; 125 g ai/ha) of the same molecule?
The pest or weed control at 125 g/ha was 90%.

And the pest or weed control at 31 g/ha ([15]; 31 g ai/ha)?
The pest or weed control at 31 g/ha was 20%.

What about the pest or weed control at 125 g/ha ([15]; 125 g ai/ha) of the same molecule?
Its pest or weed control at 125 g/ha is 90%.

And the plant injury at 31 g/ha ([16]; 31 g ai/ha)?
Its plant injury at 31 g/ha is 0%.

And the plant injury at 125 g/ha ([16]; 125 g ai/ha)?
Its plant injury at 125 g/ha is 10%.

What about the pest or weed control at 31 g/ha ([17]; 31 g ai/ha) of the same molecule?
Its pest or weed control at 31 g/ha is 0%.

And the pest or weed control at 125 g/ha ([17]; 125 g ai/ha)?
The pest or weed control at 125 g/ha was 50%.

And the pest or weed control at 31 g/ha ([18]; 31 g ai/ha)?
The pest or weed control at 31 g/ha was 0%.

And the pest or weed control at 125 g/ha ([18]; 125 g ai/ha)?
The pest or weed control at 125 g/ha was 20%.

What about the pest or weed control at 31 g/ha ([19]; 31 g ai/ha) of the same molecule?
Its pest or weed control at 31 g/ha is 10%.

What about the pest or weed control at 125 g/ha ([19]; 125 g ai/ha) of the same molecule?
Its pest or weed control at 125 g/ha is 10%.

What about the pest or weed control at 31 g/ha ([20]; 31 g ai/ha) of the same molecule?
Its pest or weed control at 31 g/ha is 0%.

And the pest or weed control at 125 g/ha ([20]; 125 g ai/ha)?
Its pest or weed control at 125 g/ha is 70%.
